These are literature values, as cited in US11866789B2, “Targeted therapies for cancer” (THE TRANSLATIONAL GENOMICS RESEARCH INSTITUTE, priority 2015, dated 2024).

SMILES strings stand for the structures.

Series [1] concerns advanced biliary tract cancer or hepatobiliary cancer. The conditions noted are these: 17 patients evaluated.
The test system of series [2] is Cell line models expressing NRG1 fusions. Conditions: See Reference 29.

Turning to `CS(=O)(=O)CCNCc1ccc(-c2ccc3ncnc(Nc4ccc(OCc5cccc(F)c5)c(Cl)c4)c3c2)o1` [Lapatinib], the objective response entry in series [1] is “no objective response”. Also, in series [2], the “sensitivity of NRG1 fusion cell line models” value was “increased sensitivity”.
